Results from patent US20120077803A1, “Uses Of NK Receptor Antagonists” (NOVARTIS AG, priority 2009, published 2012).

What was measured:
[1] = tested on: dogs with flea allergic dermatitis; test: Pruritus intensity by Actical activity monitors in flea allergic dogs; type: in vivo, Beagle dogs; settings: Prednisolone 10 mg/day orally; for Actical day, mean (standard deviation): 6am-6pm; for Actical night, mean (standard deviation): 6pm-6am
Method: (§1) Flea-allergic laboratory Beagle dogs are infested with fleas. Fifty (50) Ctenocephalides felis fleas, 18 to 20 days old are released on the back of every dog on D1. Dogs are combed 48 hours (D3) after infestation to reduce the number of fleas (reduction of allergen charge).
Pruritus intensity: Pruritus intensity is evaluated using activity monitors (Actical™: Actiwatch™; Cambridge Neuorotechnology Ltd, Papworth Everard, UK) according to Nuttall and McEwan. (Nuttal T and McEwan N, “Objective measurement of pruritus in dogs: a preliminary study using activity monitors”. ESVD, 2006, 17 348-351). The physical activity monitors, mounted on collars, are placed around the dog's neck and tightened to the extent that they more with the skin but not so that they compress the underlying tissues. They were put on the dogs on D −5. […] This typically allows to see the difference in activity when the dogs have fleas and are developing pruritic and inflammatory lesions (i.e. dermatitis) and then again their activity during treatment with either the Test Compound or Prednisolone. The activity monitors are typically removed at the end of each phase on D12. Activity monitors measure the movement average within 15 seconds,
(§2) Skin lesions are allowed to develop until the total lesion score reaches ˜20. The Test Compound is then given orally at 50, 150 and 300 mg/day, divided into 2 doses, for 5 days. Prednisolone (10 mg/day, orally) is used as a comparator.
(§3) Lesion scores and Actical™ measurement values are typically observed on the following days: • Pre-value: before challenge with fleas • the day of challenge with fleas (Actical™ measurements only); • D1: the day when the total lesion score reached a sufficiently high value (average lesion score 20) and treatment of the animal started. • D2 to D6,
(§4) In the treatment group, lesion scores were taken from 8 dogs. Actical™ measurements were also taken from 6 of these dogs.

[2] = tested on: dogs with flea allergic dermatitis; test: Skin lesion scores (total lesion score) in dogs with flea-allergic dermatitis; type: in vivo, Beagle dogs; settings: Prednisolone 10 mg/day orally
Method: as §1
Skin observations: before flea infestations (D −1) all dogs are typically examined to establish a baseline score for erythema, papules, crusts, scales, alopecia, and excoriation. From D1, daily clinical observations are performed. Each lesion is typically graded using a scale from 0 to 3:
0=no signs 1=mild 2=moderate 3=severe
as §2
Erythema: is typically an acute clinical sign of cutaneous inflammation defined as redness of the skin caused by capillary congestion which can be aggravated by scratching. Excoriation: is typically a punctuate or linear abrasion produced by mechanical means, usually involving only the epidermis but not uncommonly reaching the papillary dermis. […] Papule: is typically a circumscribed, solid elevation with no visible fluid, varying in size from a pinhead to 1 cm. […], formed when there is a high break in the follicle wall. In the presence of bacteria, papules become pustules. Crusts: are typically dried serum, pus, or blood usually mixed with epithelial and sometimes bacterial debris. Scales: are dry or greasy laminated masses of keratin.
as §3, §4
• Erythema*, • Excoriations*, • Papules/pustules • Self induced alopecia^o, and • Scales, • Erythema and excoriations are related to pruritus • Self induced alopecia is also related to pruritus but the improvement is […] after several weeks of treatment.
Day 1 of treatment when dogs reached a sufficient lesion score to initiate treatment (average 20). Pre-values (baseline).

Compound: C[C@]12C=CC(=O)C=C1CC[C@@H]1[C@@H]2[C@@H](O)C[C@@]2(C)[C@H]1CC[C@]2(O)C(=O)CO [Prednisolone, reference compound]
- Actical day, mean (standard deviation) ([1]; day 1 (treatment start)): 74 (20) Average activity counts every 15 secs
- Actical day, mean (standard deviation) ([1]; day 2): 66 (50) Average activity counts every 15 secs
- Actical day, mean (standard deviation) ([1]; day 3): 49 (33) Average activity counts every 15 secs
- Actical day, mean (standard deviation) ([1]; day 4): 54 (22) Average activity counts every 15 secs
- Actical day, mean (standard deviation) ([1]; day 5): 47 (24) Average activity counts every 15 secs
- Actical day, mean (standard deviation) ([1]; day 6): 41 (14) Average activity counts every 15 secs
- Actical day, mean (standard deviation) ([1]; fleas (day of challenge)): 74 (22) Average activity counts every 15 secs
- Actical day, mean (standard deviation) ([1]; pre (before exposure to fleas)): 40 (10) Average activity counts every 15 secs
- Actical night, mean (standard deviation) ([1]; Fleas (day of challenge)): 8.6 (3.5) Average activity counts every 15 secs
- Actical night, mean (standard deviation) ([1]; Pre (before exposure to fleas)): 7.9 (4.4) Average activity counts every 15 secs
- Actical night, mean (standard deviation) ([1]; day 1 (treatment start)): 16.2 (2.9) Average activity counts every 15 secs
- Actical night, mean (standard deviation) ([1]; day 2): 6.8 (4.1) Average activity counts every 15 secs
- Actical night, mean (standard deviation) ([1]; day 3): 5.1 (2.8) Average activity counts every 15 secs
- Actical night, mean (standard deviation) ([1]; day 4): 7.3 (3.3) Average activity counts every 15 secs
- Actical night, mean (standard deviation) ([1]; day 5): 4.8 (2.2) Average activity counts every 15 secs
- Actical night, mean (standard deviation) ([1]; day 6): 5.3 (1.7) Average activity counts every 15 secs
- Total score ctb (total lesion score compared to baseline), mean (standard deviation) ([2]; day 2): −5.6 (6.3)
- Total score ctb (total lesion score compared to baseline), mean (standard deviation) ([2]; day 3): −7.9 (6.7)
- Total score ctb (total lesion score compared to baseline), mean (standard deviation) ([2]; day 4): −9.2 (6.3)
- Total score ctb (total lesion score compared to baseline), mean (standard deviation) ([2]; day 5): −9.9 (4.8)
- Total score ctb (total lesion score compared to baseline), mean (standard deviation) ([2]; day 6): −11.8 (6.1)
